Results published in article PMC12463534, “Exploring the Anticancer Properties of 4-Phenylthiazole-Based Ru(II) and Os(II) Metallacycles Featuring 1-Methylimidazole as N-Donor Functionality” (Bioinorganic Chemistry and Applications, 2025).

Legend:
[1] = tested on: SW480 cells; assay: DCFH-DA assay, cellular ROS levels; type: cell-based, human; conditions: 2 h, concentration dependent
Experimental: For this approach, SW480 cells were subjected to the 2′,7′-dichlorofluorescin-diacetate (DCFH-DA) assay.
SW480 colon adenocarcinoma cells were trypsinized for 5 min in a humidified incubator at 37°C and under a 5% CO2 atmosphere. Supplemented MEM was added to stop trypsinization, and cells were centrifuged for 3 min at 1200 rpm (Heraeus Megafuge 1.0R). After cell counting, SW480 cells were seeded in 100-μL aliquots in densities of 2.5 × 10^4 cells/well into 96-well clear flat-bottom microplates (CytoOne, TC-treated, from Starlab). After incubation for 24 h, cells were washed with 200 μL of Hanks' balanced salt solution (HBSS; Sigma-Aldrich; supplemented with 1% heat-inactivated FCS). […] After washing cells with 200 μL of supplemented HBSS, serially diluted test compounds in phenol-red-free Opti-MEM (Gibco), supplemented with 1% heat-inactivated FCS, were added in 200-μl triplicates and tert-butyl hydroperoxide (TBHP) was applied as positive control. […] Blank-corrected values were calculated relative to negative controls (treated with drug-free supplemented Opti-MEM) from three independent experiments.

[2] = tested on: Balb/c mice; assay: Toxicity experiments in Balb/c mice (MTD); conditions: mice, i.p.
Experimental: Finally, we were interested in the anticancer activity of selected complexes of our panel in an in vivo mouse setting. Before injecting the compounds in tumor-bearing mice, toxicity experiments were performed. […] On the last day of therapy, most animals were sacrificed and tissues as well as tumors collected. Only four mice (per group) were kept to get information on the impact of the drugs on the overall survival.

[3] = tested on: CT26 tumor; assay: Anticancer activity in CT26 tumor-bearing BALB/c mice; type: in vivo; conditions: i.p. 50 mg/kg, 5 times a week for two weeks, did not reach statistical significance
Experimental: Figure 5 Anticancer activity of 1c and 3c in vivo. CT26-bearing BALB/c mice were treated i.p. with 50 mg/kg for five consecutive days for 2 weeks. (a) Impact on tumor growth; data are presented as mean ± SEM. […] On Day 15, most of the animals were sacrificed and tissues collected for further analyses. Of each group, 4 animals were kept to assess the impact on overall survival, which is shown in (b). Statistical significance was tested by log-rank test and Mantel–Cox post-test, ^∗p < 0.01. (c) The ruthenium levels measured by ICP-MS in the collected tissue samples of the mice, which were sacrificed 2 h after the last treatment.
(§1) CT26 cells (5 × 10^5 cells in 50-μL serum-free medium) were injected subcutaneously (s.c.) into the right flank of 8–16-week-old BALB/c mice (Envigo Laboratories, San Pietro Al Natisone, Italy). After 3 days, therapy treatment started on five consecutive days for 2 weeks. Animals were treated i.p. with 50 mg/kg 1c and 3c (all dissolved in 10% DMSO in 0.9% NaCl, 12 mice per group). The solvent control animals received 10% DMSO in 0.9% NaCl. Every day, the animals were monitored for the overall health conditions and tumor size was measured regularly by caliper measurement. Tumor volumes (mm^3) were calculated using following formula: length × width^2/2. In the overall survival arm of the experiment, mice were sacrificed by cervical dislocation in the case of a tumor length > 20 mm or tumor ulceration or a decreased body weight of ∼20%. Tumor growth and possible side effects of the treatment were evaluated by daily recording the tumor size by caliper measurement and parameters of the animal's overall health conditions. In the tissue sampling arm at the experiment, the mice were sacrificed by cervical dislocation 2 h after the last treatment. Tumors as well as organs were collected. Additionally, blood was drawn and incubated for 25 min to allow blood clotting. To isolate serum and blood pellets, the blood was centrifuged for 10 min at 17,900 g at room temperature. The supernatant characterized as serum was transferred to a new tube and centrifuged again to remove residual red blood cells. All collected samples were stored at −20°C and further processed for platinum measurements via ICP-MS.

[4] = Ruthenium levels in tissues by ICP-MS; type: in vivo; conditions: CT26-bearing mice, 2 h after last injection
Experimental: Tumor-specific organs and blood serum, harvested from the other animals 2 h after the last injection (Figure 5(c)), were measured for the average ruthenium content by inductively coupled plasma mass spectrometry (ICP-MS) of tissue homogenates.
as §1, with “In the overall survival arm of the experiment, mice were sacrificed by cervical dislocation in the case of a tumor length > 20 mm or tumor ulceration or a decreased body weight of ∼20%.” left out
The ruthenium concentration was determined by ICP-MS analysis. Ruthenium and rhenium standards were derived from LabKings (LabKings B.V., The Netherlands). The total ruthenium content was determined with a quadrupole-based ICP-MS instrument Agilent 7800 (Agilent Technologies, Tokyo, Japan) equipped with the Agilent SPS 4 autosampler (Agilent Technologies, Tokyo, Japan) and a MicroMist nebulizer at a sample uptake rate of approximately 0.2 mL·min^−1. […] Argon was used as plasma gas (15 L·min^−1) and as carrier gas (∼1.08 L·min^−1). The integration time was set to 0.1 s, and measurements were performed in 6 replicates with 100 sweeps. Rhenium served as internal standard for ruthenium.

[5] = tested on: A549 lung adenocarcinoma cells; set-up: method as in PMID 38426897; conditions: MTT assay, exposure time 96 h; ref [5]; read-out: 50% inhibitory concentration A549 (chlorido complexes, reference) (converted); cited from earlier work
[6] = tested on: SW480 colon adenocarcinoma cells; set-up: method as in PMID 38426897; conditions: MTT assay, exposure time 96 h; ref [5]; read-out: 50% inhibitory concentration SW480 (chlorido complexes, reference) (converted); cited from earlier work
[7] = tested on: CH1/PA-1 ovarian teratocarcinoma cells; set-up: method as in PMID 38426897; conditions: MTT assay, exposure time 96 h; ref [5]; read-out: 50% inhibitory concentration CH1 (chlorido complexes, reference) (converted); cited from earlier work
[8] = tested on: G4 forming sequences (h-Telo, bcl2, hTERT, Kit1, Kit2) and dsDNA; set-up: method as in PMID 38426897; conditions: recent work; ref [5]; cited from earlier work
[9] = tested on: HCT116 colorectal cancer cell line (2D); assay: Resazurin assay, HCT116 2D (monolayer) culture
Experimental: (§2) Both models were investigated by the fluorimetric resazurin assay after 96-h exposure.
(§3) HCT116 colorectal carcinoma cells (RRID:CVCL_0291 from ATCC) were cultivated in McCoy's 5A medium, supplemented with 10% heat-inactivated fetal bovine serum and 4 mM L-glutamine.
(§4) For 2D experiments, HCT116 cells were harvested from culture flasks by trypsinization, seeded in 100-μL aliquots into 96-well microculture plates (CytoOne, TC-treated, from Starlab) in densities of 2 × 10^3 cells per well, and incubated for 24 h prior to exposure to the test compounds. […] Stock solutions of test compounds were prepared in DMF, which were then diluted in McCoy's 5A-supplemented medium (not to exceed a final content of 0.5% v/v of organic solvent in the test plates), and serial dilutions were added in aliquots of 100 μL per well. […] After incubation for 4 h, fluorescence was measured with a microplate reader (Bio-Tek, SynergyHT) at a wavelength of 530 nm, additionally using a reference wavelength of 620 nm.

[10] = tested on: HCT116 multicellular tumor spheroids (3D); assay: Resazurin assay, HCT116 3D multicellular tumor spheroids
Experimental: as §2, §3, §4

Which “Effect on intracellular ROS levels” value [1] does the source give for `CS(=O)(=O)c1ccc(-c2cscn2)[c]([Ru][Cl])c1.Cc1ccc(C(C)C)cc1` [Compound 1c] here?
The value was “constantly decrease ROS levels with increasing concentrations”.

What about the Tolerated dose [2] of the same compound?
The Tolerated dose was “at least 50 mg/kg”.

And the “Impact on tumor volume (anticancer activity)” value [3]?
Its value is “slight anticancer activity”.

What about the “Kidney ruthenium levels, fold higher compared to 3c” value [4] of the same compound?
The value was 10 fold.

And the “Ruthenium level in liver” value [4]?
Its value is ~20 mg/kg.

What about the “Ruthenium level in tumor” value [4] of the same compound?
The value was ~1 mg/kg.

And the IC50 [5]?
The IC50 was 12 µM.

What about the IC50 [6] of the same compound?
Its IC50 is 5.1 µM.

What about the IC50 [7] of the same compound?
Its IC50 is 1.6 µM.

And the “Stabilization of DNA G-quadruplex structures” value [8]?
The value was “stabilize DNA G-quadruplex (G4) structures”.

What about the “Increase of cytotoxic activity by mesylation (1c vs 1a), 2D” value [9] of the same compound?
Its value is 2.8 times.

What about the IC50 ([9]; read-out: IC50 2D, resazurin assay, 96 h exposure) of the same compound?
The IC50 was 6.5 ± 1.3 µM.

And the “Enhancement of cytotoxic activity by mesylation (1c vs 1a), 3D” value ([10]; HCT116 3D)?
Its value is 3.5 fold.

And the IC50 ([10]; read-out: IC50 3D, HCT116 3D spheroids, resazurin assay, 96 h exposure)?
The IC50 was 8.9 ± 2.1 µM.
